Numbered stars: 1 amine (or outer) side, 2 acyl side, 3 side chain; on linkers, the order of the positions; unused ones are H or OH. Square brackets hold non-standard residues; d marks the D form. Peptide text beside a SMILES is read from it. * marks the point of attachment. X2 = CC(C)C[C@H](N[*:1])[C@@H](O)C(F)(F)C(=O)[*:2]; X1 = CC(C)C[C@H](N[*:1])C(=O)C(F)(F)C(=O)[*:2]; X3 = CC(C)C[C@H](N[*:1])C(=O)CC(=O)[*:2]; Sta = CC(C)C[C@H](N)[C@@H](O)CC(=O)O; Boc = CC(C)(C)OC(=O)*

The assay addresses T1, Renin (Homo sapiens, UniProt P00797).
T1 sequence (P00797 whole entry): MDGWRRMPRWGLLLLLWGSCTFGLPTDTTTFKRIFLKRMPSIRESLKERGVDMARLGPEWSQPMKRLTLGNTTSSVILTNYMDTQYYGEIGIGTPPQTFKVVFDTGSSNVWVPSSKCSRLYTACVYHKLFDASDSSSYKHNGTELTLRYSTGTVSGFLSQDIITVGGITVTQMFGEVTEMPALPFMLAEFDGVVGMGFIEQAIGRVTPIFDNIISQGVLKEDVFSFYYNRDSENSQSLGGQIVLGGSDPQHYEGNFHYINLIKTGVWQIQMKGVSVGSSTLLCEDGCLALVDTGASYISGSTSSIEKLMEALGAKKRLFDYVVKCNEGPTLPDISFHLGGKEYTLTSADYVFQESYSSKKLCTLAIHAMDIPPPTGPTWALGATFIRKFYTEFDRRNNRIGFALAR
In words: Compound was evaluated for inhibitory activity against human kidney renin. Format: tissue-based.
`CC(C)C[C@H](NC(=O)C(F)(F)[C@H](O)[C@H](CC(C)C)NC(=O)[C@@H](/C=C/[C@H](Cc1ccccc1)NC(=O)OC(C)(C)C)Cc1ccccc1)C(=O)N[C@@H](Cc1ccccc1)C(N)=O`: the Ki (usually a dissociation constant, usually derived from enzyme kinetics or from competition with a known ligand) came out at 12000 nM.

In turn, `COC(=O)[C@@H](/C=C/[C@H](CC(C)C)NC(=O)C(F)(F)C(=O)[C@H](CC(C)C)NC(=O)[C@H](Cc1ccccc1)NC(=O)[C@H](Cc1ccccc1)NC(=O)OC(C)(C)C)Cc1ccccc1` had a Ki of 1200 nM. Against the preceding compound, the Ki is about 10-fold lower.

Take `COC(=O)[C@@H](/C=C/[C@H](CC(C)C)NC(=O)C(F)(F)[C@H](O)[C@H](CC(C)C)NC(=O)[C@H](Cc1ccccc1)NC(=O)[C@H](Cc1ccccc1)NC(=O)OC(C)(C)C)Cc1ccccc1`: affinity was put at a Ki of 16000 nM. Against the preceding compound, the Ki is about 13-fold higher.

With `CC(C)C[C@H](NC(=O)C[C@H](O)[C@H](CC(C)C)NC(=O)[C@H](Cc1ccccc1)NC(=O)[C@H](Cc1ccccc1)NC(=O)OC(C)(C)C)C(=O)N[C@@H](Cc1ccccc1)C(N)=O` (Boc-FF[Sta]LF-NH2), affinity was put at a Ki of 52 nM.

In turn, `CC(C)C[C@H](NC(=O)C(F)(F)C(=O)[C@H](CC(C)C)NC(=O)[C@H](Cc1ccccc1)NC(=O)[C@H](Cc1ccccc1)NC(=O)OC(C)(C)C)C(=O)N[C@@H](Cc1ccccc1)C(N)=O` (Boc-FF[X1]LF-NH2) showed a Ki of 7 nM.

`CC(C)C[C@H](NC(=O)C(F)(F)[C@H](O)[C@H](CC(C)C)NC(=O)[C@H](Cc1ccccc1)NC(=O)[C@H](Cc1ccccc1)NC(=O)OC(C)(C)C)C(=O)N[C@@H](Cc1ccccc1)C(N)=O` (Boc-FF[X2]LF-NH2) had a Ki of 120 nM.

In the case of `CC(C)C[C@H](NC(=O)[C@H](Cc1ccccc1)NC(=O)[C@H](Cc1ccccc1)NC(=O)OC(C)(C)C)C(=O)CC(=O)N[C@@H](CC(C)C)C(=O)N[C@@H](Cc1ccccc1)C(N)=O` (Boc-FF[X3]LF-NH2), the Ki came to 154 nM.

Source of the values: ChEMBL document CHEMBL1123887, “Fluoro ketone containing peptides as inhibitors of human renin” (J Med Chem, 1987).
